From patent US20070196349A1, “Whitening composition containing reduced coenzyme Q” (KANEKA CORPORATION, priority 2004, published 2007)
Marks after values point to notes of the source that are not given here.

Columns and labels:
[1] = tested on: Normal human dermal fibroblasts (NHDF); test: Effect for protecting cells from oxidation stress in dermal fibroblasts (cellular ATP level after hydrogen peroxide); format: cell-based; settings: for ATP level: 1 mM hydrogen peroxide for 15 minutes
Description: Normal human dermal fibroblasts (NHDF: product of Kurabo Industries, Ltd.) were incubated in the basal medium Medium 106S (product of Kurabo Industries, Ltd.) supplemented with 2% fetal bovine serum, 10 μg/ml of heparin, 1 μg/ml of hydrocortisone, 10 ng/ml of human recombinant epidermal growth factor, and 3 ng/ml of human recombinant basic fibroblast growth factor under conditions of 37° C. and 5% CO2. After confluence, the cells were seeded onto a 96-well microplate (2.0×10^3 cells/well). In seeding, Medium 106S (product of Kurabo Industries, Ltd.) supplemented with 2% fetal bovine serum, 10 μg/ml of heparin, and 1 μg/ml of hydrocortisone was used. After 24 hours culture, the medium was exchanged to the same medium supplemented with a sample specimen, and after 24 hours, it was exchanged to Medium 106S (product of Kurabo Industries, Ltd.) supplemented with 2% fetal bovine serum, 10 μg/ml of heparin, 1 μg/ml of hydrocortisone, 7.5 μg/ml of coenzyme A, and a sample specimen in order to further culture for 48 hours. After that, the medium was removed to be exchange to the medium supplemented with 1 mM hydrogen peroxide (product of Wako Pure Chemical Industries), and then the cells were incubated for 15 minutes followed by rinsing with PBS, and cellular ATP level was determined using ATP assay kit (product of PerkinElmer) for comparison. The parametrical multiple comparison (Turkey type) was carried out in statistical processing, and the symbol “†” refers that the percentage of risk is less than 5% in comparison with the control group containing solvent only.

[2] = tested on: Normal human dermal fibroblasts (NHDF); test: Cell activation-promoting effect in dermal fibroblasts (cellular ATP level); format: cell-based; settings: for ATP level: 48 hours culture with sample
Description: Normal human dermal fibroblasts (NHDF: product of Kurabo Industries, Ltd.) were incubated in the basal medium Medium 106S (product of Kurabo Industries, Ltd.) supplemented with 2% fetal bovine serum, 10 μg/ml of heparin, 1 μg/ml of hydrocortisone, 10 ng/ml of human recombinant epidermal growth factor, and 3 ng/ml of human recombinant basic fibroblast growth factor under conditions of 37° C. and 5% CO2. After confluence, the cells were seeded onto a 96-well microplate (2.0×10^3 cells/well). In seeding, Medium 106S (product of Kurabo Industries, Ltd.) supplemented with 2% fetal bovine serum, 10 μg/ml of heparin, and 1 μg/ml of hydrocortisone was used. After 24 hours culture, the medium was exchanged to the same medium supplemented with a sample specimen in order to further culture for 48 hours. After that, the medium was removed and then the cells were rinsed with PBS, and cellular ATP level was determined using ATP assay kit (product of PerkinElmer) for comparison. The parametrical multiple comparison (Turkey type) was carried out in statistical processing, and the symbol “*” refers that the percentage of risk is less than 5%, and the symbol “**” refers that the percentage of risk is less than 1%, in comparison with the control group containing solvent only. In addition, the symbol “†” at the numerical value refers that the percentage of risk is less than 5% in comparison with oxidized coenzyme Q10.

brown guinea pigs = test: Inhibitory effect on pigmentation due to ultraviolet radiation; format: in vivo, guinea pig; settings: average of scores (Table 1) of six brown guinea pigs, #=(L1−L0)−(L′1−L′0), sample vs medium, UVB-irradiated dorsal skin, polyethylene glycol ointment containing 10 parts by weight of reduced coenzyme Q10 applied once a day for one month
Description: The dorsal hair of six brown guinea pigs was carefully shaved with a clipper or shaver, and the shaved dorsal skin of each guinea pig was irradiated with ultraviolet beams (UVB: wavelength 250 to 350 nm) in the minimum erythema dose at two square portions of 2 cm′2 cm on the right and left of the dorsal median. The ultraviolet irradiation was performed once every other day for three days to induce erythema. Also, a medium and a sample were continuously applied to the respective irradiated portions (erythema portions) once a day for one month to examine the inhibitory action on pigmentation. As the sample, a polyethylene glycol ointment containing 10 parts by weight of reduced coenzyme Q10 was used. As the medium, only polyethylene glycol was used. Evaluation was performed by measurement with a color-difference meter, and an L value was calculated from the observed Munsell value.
Namely, DL (change with time) of the medium-applied portion was subtracted from DL (change with time) of the opposite sample-applied portion to obtain a value (#) according to the following equation: #=(L1−L0)−(L′1−L′0)
L0: Test portion before application of the sample
L′0: Test portion before application of the medium
L1: Sample-applied test portion one month after continuous application
L′1: Medium-applied test portion one month after continuous application […]

| Compound | ATP level ([1]; 8.13 μg/ml) [nM] | ATP level ([1]; 100 μg/ml) [nM] | ATP level ([2]; 0.12 μg/ml) | ATP level ([2]; 0.98 μg/ml) | cellular ATP level compared with the solvent control ([2]; result in words) | Average evaluation score (brown guinea pigs) | Average evaluation score (brown guinea pigs; listed as reduced coenzyme Q10) | cellular ATP level compared with the solvent control ([1]; 100 μg/ml, hydrogen peroxide oxidation stress, result in words) | cellular ATP level, reduced compared with oxidized coenzyme Q10 ([2]; result in words) |
| --- | --- | --- | --- | --- | --- | --- | --- | --- | --- |
| COC1=C(OC)C(=O)C(C/C=C(\C)CC/C=C(\C)CC/C=C(\C)CC/C=C(\C)CC/C=C(\C)CC/C=C(\C)CC/C=C(\C)CC/C=C(\C)CC/C=C(\C)CCC=C(C)C)=C(C)C1=O [Oxidized coenzyme Q10, oxidized coenzyme Q10, reference compound] | 82.29 ± 9.08 | 103.41 ± 1.17 | 183.23 ± 62.70 nM | 224.84 ± 43.55* nM | significantly increase the cellular ATP level |  |  |  |  |
| COc1c(O)c(C)c(C/C=C(\C)CC/C=C(\C)CC/C=C(\C)CC/C=C(\C)CC/C=C(\C)CC/C=C(\C)CC/C=C(\C)CC/C=C(\C)CC/C=C(\C)CCC=C(C)C)c(O)c1OC [Reduced coenzyme Q10, reduced coenzyme Q10] | 73.93 ± 4.96 | 112.47 ± 5.45 | 277.21 ± 46.02**† nM | 267.24 ± 20.72** nM | significantly increase the cellular ATP level | 2.17 | 2 (0 ≦ # < 0.5) | significantly increase the cellular ATP level | significantly increase the cellular ATP level |
